In ChEMBL document CHEMBL2169832, “Conformation-specific effects of Raf kinase inhibitors” (J Med Chem, 2012):

Columns and labels:
HCT-116 = assay: cells; settings: Homo sapiens
A-375 = assay: cells; settings: Homo sapiens
[1] = target: RAF proto-oncogene serine/threonine-protein kinase (Homo sapiens, UniProt P04049); assay: Inhibition of C-Raf
Chain of RAF proto-oncogene serine/threonine-protein kinase (P04049 whole entry): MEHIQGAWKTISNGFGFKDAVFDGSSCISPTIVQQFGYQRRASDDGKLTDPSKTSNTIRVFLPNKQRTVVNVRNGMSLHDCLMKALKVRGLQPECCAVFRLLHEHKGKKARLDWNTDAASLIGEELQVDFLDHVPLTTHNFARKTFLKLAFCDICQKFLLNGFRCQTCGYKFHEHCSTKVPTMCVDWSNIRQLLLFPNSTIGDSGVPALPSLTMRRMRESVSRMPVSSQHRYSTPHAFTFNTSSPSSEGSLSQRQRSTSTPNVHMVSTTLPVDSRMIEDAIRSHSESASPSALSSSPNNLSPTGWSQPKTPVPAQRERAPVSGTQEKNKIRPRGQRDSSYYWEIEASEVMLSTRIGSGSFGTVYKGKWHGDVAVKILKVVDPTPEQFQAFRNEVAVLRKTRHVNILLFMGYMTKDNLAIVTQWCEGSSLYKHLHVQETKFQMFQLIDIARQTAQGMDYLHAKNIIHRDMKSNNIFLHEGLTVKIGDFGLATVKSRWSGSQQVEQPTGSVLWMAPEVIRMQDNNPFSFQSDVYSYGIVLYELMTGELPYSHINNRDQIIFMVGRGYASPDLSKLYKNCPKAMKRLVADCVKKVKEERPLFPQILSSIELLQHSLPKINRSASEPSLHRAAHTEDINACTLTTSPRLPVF

SMILES	IC50 (HCT-116) [µM]	IC50 (A-375) [µM]	Ki [1] [µM]
CNC(=O)c1cc(Oc2ccc(NC(=O)Nc3ccc(Cl)c(C(F)(F)F)c3)cc2)ccn1 [SORAFENIB]	2	2.4	–
Cc1ccc2c(Nc3ccc(Cl)cc3)nccc2c1Nc1ncccc1-c1ncnc2[nH]cnc12	0.72	0.31	0.0003
OCCn1cc(-c2ccc3c(c2)CC/C3=N\O)c(-c2ccncc2)n1	> 20	< 0.5	–
CCCS(=O)(=O)Nc1ccc(F)c(C(=O)c2c[nH]c3ncc(Cl)cc23)c1F [PLX-4720]	27	0.5	–
CN(C)CCOc1ccc(-c2nc(-c3ccncc3)c(-c3ccc4c(c3)CC/C4=N\O)[nH]2)cc1 [SB590885]	4.6	0.37	–
